From patent US20030100769A1, “Cyclic amidine compounds” (priority 2000, published 2003)

Target: T1, human α4β2 subtype of nicotinic acetylcholine receptors (Homo sapiens, UniProt P17787+P43681)
T1 construct: expressed in transfected cells; host or cells: Xenopus laevis oocytes injected with hnACh-R α4 and β2 cRNA (pSP64 polyA)
Test: Agonist activities at human α4β2 subtype of nicotinic acetylcholine receptors expressed in Xenopus oocytes (membrane potential holding method)
Assay type: cell-based
Details: for EC50: held at −50 mV, calculated in comparison with the reaction with 10 μM acetylcholine (100%), read-out: Agonist activity (ED50)
Protocol: The agonist effect in human α4β2 subtype of nicotinic acetylcholine receptors are examined by using human nicotinic acetylcholine receptors prepared in oocytes of Xenopus laevis, which is injected with cRNA from the corresponding cloning cDNA of human α4 and β2 subunits of nicotinic acetylcholine receptors, and to measure the expression of the electric response by adding the test compounds to perfusion solution by means of membrane potential holding method.
Agonist Activities at Human α4β2 Subtype of Nicotinic Acetylcholine Receptors
(1) Preparation of cRNA of Human α4β2 Subtype of Nicotinic Acetylcholine Receptors
The obtained hnACh-R α4 cDNA and hnACh-R β2 cDNA were inserted to the cRNA expression vector (pSP64 polyA) having SP6 RNA promoter to construct hnACh-R α4/pSP64 polyA and hnACh-R β2/pSP64 polyA, respectively. After cutting from expression vector by restriction enzyme (EcoRI), transcription was performed by affecting SP6 RNA polymerase in the presence of cap analogues to obtain hnACh-R α4 cRNA and hnACh-R β2 cRNA, respectively.
(2) Expression of Human α4β2 Subtype Nicotinic Acetylcholine Receptors in Xenopus Oocytes
Oocytes were purchased from Kitanihonseibutsukyohzai Co., Ltd., which were already enucleated from Xenopus laevis, and used in this experiment.
The oocytes were treated with collagenase (Sigma type I; 1 mg/ml) in calcium-free modified Birth's solution (88 mM of NaCl, 1 mM of KCl, 2.4 mM of NaHCO3, 0.82 mM of MgSO4, 15 mM of HEPES, pH 7.6) under gently stirring at room temperature for 90 minutes, and washed out the enzyme from the tissue. Then, oocytes were separated from ovarian follicle by tweezers, and isolated oocytes were placed in antibiotics containing modified Birth's solution (88 mM of NaCl, 1 mM of KCl, 2.4 mM of NaHCO3, 0.82 mM of MgSO4, 15 mM of HEPES, pH 7.6, and 0.1 v/v % of mixture solution containing of penicillin and streptomycin for incubation; Sigma Co.). […] In oocytes, heterogeneous quintuple [(α4)2(β2)3] was composed by translation of injected cRNAs, and ion channel receptors were constructed on cell membrane.
(3) Agonist Activities at Human α4β2 Subtype of Nicotinic Acetylcholine Receptors
The recordings of responses at human α4β2 subtype of nicotinic acetylcholine receptors by means of membrane potential holding method were performed as follow. […] Test compounds were added to the perfusion solution, and recorded the peak strength of induced inward current. In order to normalize the responses of test compounds, the responses with acetylcholine (Ach) were recorded before and after application of the test compounds. Generally in the oocytes just after isolated, the response of intrinsic muscarinic acetylcholine receptors, which is inward current caused by activation of calcium dependence chloride ion channels with increase of the intracellular calcium concentration by stimulation of receptors, is observed. […] Therefore, the responses observed in oocytes with injection of hnACh-R α4 cRNA and hnACh-R β2 cRNA, i.e., the inward current induced by the intracellular influx of sodium ion according to the stimulation of receptors, would be the freshly observed responses of human α4β2 subtype nicotinic acetylcholine receptors.

T1 sequence (P43681 29-627 limits assumed): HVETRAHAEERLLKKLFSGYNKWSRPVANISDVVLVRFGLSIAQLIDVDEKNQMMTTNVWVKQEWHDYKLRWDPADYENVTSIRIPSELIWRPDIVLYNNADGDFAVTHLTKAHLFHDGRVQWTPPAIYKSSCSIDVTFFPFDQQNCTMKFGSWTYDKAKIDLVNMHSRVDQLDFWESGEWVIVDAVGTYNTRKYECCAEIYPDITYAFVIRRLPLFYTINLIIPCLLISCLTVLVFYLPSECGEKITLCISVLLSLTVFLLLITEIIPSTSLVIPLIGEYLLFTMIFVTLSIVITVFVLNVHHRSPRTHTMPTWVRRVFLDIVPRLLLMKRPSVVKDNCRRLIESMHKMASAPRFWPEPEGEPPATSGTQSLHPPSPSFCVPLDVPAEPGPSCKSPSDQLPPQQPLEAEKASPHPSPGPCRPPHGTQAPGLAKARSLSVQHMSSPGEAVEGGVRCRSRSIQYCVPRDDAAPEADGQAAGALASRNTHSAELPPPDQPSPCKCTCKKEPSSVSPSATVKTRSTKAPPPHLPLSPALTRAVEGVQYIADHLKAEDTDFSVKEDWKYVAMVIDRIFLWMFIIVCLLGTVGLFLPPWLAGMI
T1 sequence (P17787 26-502): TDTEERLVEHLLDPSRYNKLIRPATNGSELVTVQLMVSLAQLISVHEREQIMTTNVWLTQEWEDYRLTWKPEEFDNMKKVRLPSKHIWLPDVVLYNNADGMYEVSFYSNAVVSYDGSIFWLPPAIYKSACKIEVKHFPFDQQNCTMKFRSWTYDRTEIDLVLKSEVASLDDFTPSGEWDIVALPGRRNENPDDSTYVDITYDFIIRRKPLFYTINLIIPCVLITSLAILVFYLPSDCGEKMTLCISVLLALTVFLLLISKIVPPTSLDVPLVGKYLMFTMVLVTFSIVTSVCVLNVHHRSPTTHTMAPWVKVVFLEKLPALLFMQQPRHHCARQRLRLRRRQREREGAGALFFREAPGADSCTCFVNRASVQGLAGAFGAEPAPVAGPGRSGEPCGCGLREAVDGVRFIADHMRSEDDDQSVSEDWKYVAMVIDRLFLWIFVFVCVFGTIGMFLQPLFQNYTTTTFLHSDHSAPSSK

Row | SMILES | EC50 [µM] | Agonist activity: control % by response at 100 μM of the test compound (100 μM test compound, relative to 10 μM acetylcholine (100%))
1 | Clc1ccc(C2=NCCCN2)cn1 [Compound 2, 2-(6-chloro-3-pyridyl)-1,4,5,6-tetrahydropyrimidine] | 3.4 | –
2 | CN1CCN=C1c1ccc(Cl)nc1 [Compound 3, 2-(6-chloro-3-pyridyl)-1-methyl-2-imidazoline] | 43.8 | –
3 | Clc1ncc(C2=NCCCN2)s1 [Compound 22, 2-(2-chloro-5-thiazolyl)-1,4,5,6-tetrahydropyrimidine] | – | (13.2%)
